Reference: the supplement of paper PMC10883282
± gives the standard deviation of the averaged measurements.

Test system: SK-LMS-1
Experiment: relative viability vs DMSO control (72 h) (fraction); higher = more viable cells
Outline: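 ATPLite readings, expressed as percent growth and averaged over up to triplicate wells, provided relative viability. Before reading, sarcoma cell lines seeded in 384-well plates to reach 80–90% confluence received 2.5 µl of serially diluted compound after 24 h, from source plates of 10 mM to 0.0002 mM. Plates were held 72 h at 37 °C, 5% CO2, with 0.1% DMSO as vehicle and a 5 µM positive control. The data were rescaled to 1 for full and 0 for none.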

| Structure (SMILES) | relative viability (0.00017 µM) | relative viability (0.00051 µM) | relative viability (0.00152 µM) | relative viability (0.00457 µM) | relative viability (0.01372 µM) | relative viability (0.04115 µM) | relative viability (0.1235 µM) | relative viability (0.3704 µM) | relative viability (1.111 µM) | relative viability (3.333 µM) | relative viability (10 µM) |
| --- | --- | --- | --- | --- | --- | --- | --- | --- | --- | --- | --- |
| Cc1ccc(F)c(NC(=O)Nc2ccc(-c3cccc4[nH]nc(N)c34)cc2)c1 [Linifanib] | 0.97 ± 0.011 | 1 ± 0.02 | 1.02 ± 0.022 | 1.01 ± 0.038 | 1.03 ± 0.037 | 1.01 ± 0.041 | 1.02 ± 0.05 | 1.04 ± 0.059 | 1.099 ± 0.0016 | 1.05 ± 0.058 | 1.06 ± 0.075 |
| CNC(=O)c1ccc(-c2cnc3ncc(Cc4ccc5ncccc5c4)n3n2)cc1F [Capmatinib] | 1.02 ± 0.019 | 1 ± 0.07 | 0.987 ± 0.015 | 0.882 ± 0.031 | 0.617 ± 0.047 | 0.536 ± 0.0061 | 0.532 ± 0.0098 | 0.53 ± 0.013 | 0.512 ± 0.012 | 0.496 ± 0.017 | 0.5154 ± 0.005 |
| CN1CCC(COc2cnc(-c3cccc(Cn4nc(-c5cccc(C#N)c5)ccc4=O)c3)nc2)CC1 [Tepotinib] | 1.06 ± 0.027 | 1.05 ± 0.022 | 1.01 ± 0.037 | 1.05 ± 0.039 | 1 ± 0.047 | 0.833 ± 0.017 | 0.597 ± 0.019 | 0.526 ± 0.0067 | 0.489 ± 0.0072 | 0.461 ± 0.02 | 0.361 ± 0.028 |
| N#CC[C@H](C1CCCC1)n1cc(-c2ncnc3[nH]ccc23)cn1 [Ruxolitinib] | 1.03 ± 0.012 | 1 ± 0.037 | 0.995 ± 0.036 | 1.03 ± 0.034 | 1.036 ± 0.0052 | 1.035 ± 0.0072 | 1.02 ± 0.021 | 1.03 ± 0.029 | 1.03 ± 0.039 | 0.986 ± 0.033 | 0.828 ± 0.02 |
| CC(C)(C)c1cc(NC(=O)Nc2ccc(-c3cn4c(n3)sc3cc(OCCN5CCOCC5)ccc34)cc2)no1 [Quizartinib] | 1.05 ± 0.018 | 1.07 ± 0.038 | 1.07 ± 0.029 | 1.03 ± 0.042 | 1.06 ± 0.043 | 1.05 ± 0.04 | 1.06 ± 0.018 | 0.979 ± 0.04 | 0.932 ± 0.019 | 0.832 ± 0.045 | 0.528 ± 0.029 |
| COc1c(OCCCN2CCOCC2)ccc2c1N=C(NC(=O)c1cnc(N)nc1)N1CCN=C21 [Copanlisib] | 1.05 ± 0.059 | 0.995 ± 0.035 | 0.964 ± 0.032 | 0.814 ± 0.035 | 0.744 ± 0.042 | 0.629 ± 0.014 | 0.539 ± 0.018 | 0.454 ± 0.017 | 0.365 ± 0.02 | 0.296 ± 0.014 | 0.302 ± 0.011 |
| Cc1ccc(NC(=O)c2ccc(CN3CCN(C)CC3)cc2)cc1Nc1nc(-c2cccnc2)cs1 [Masitinib] | 1.03 ± 0.013 | 1.05 ± 0.031 | 1.03 ± 0.022 | 1.02 ± 0.029 | 1.02 ± 0.029 | 1.04 ± 0.03 | 1.01 ± 0.018 | 1.008 ± 0.0068 | 0.953 ± 0.051 | 0.605 ± 0.0079 | 0.103 ± 0.0046 |
| Cn1cc(-c2cc3c(N4CCN(c5ncc([C@@](C)(N)c6ccc(F)cc6)cn5)CC4)ncnn3c2)cn1 [Avapritinib] | 0.9488 ± 0.004 | 0.959 ± 0.072 | 0.999 ± 0.047 | 0.989 ± 0.049 | 0.973 ± 0.061 | 0.978 ± 0.023 | 0.9338 ± 0.0068 | 0.911 ± 0.012 | 0.877 ± 0.03 | 0.7843 ± 0.0066 | 0.829 ± 0.026 |
| O=C(Cc1ccc(-c2ccc(OCCN3CCOCC3)cc2)cn1)NCc1ccccc1 [KX2-391] | 1.03 ± 0.047 | 1.02 ± 0.02 | 1.05 ± 0.019 | 1 ± 0.038 | 0.99 ± 0.038 | 0.704 ± 0.034 | 0.537 ± 0.023 | 0.361 ± 0.0063 | 0.338 ± 0.021 | 0.344 ± 0.018 | 0.333 ± 0.0098 |
| CO[C@H]1C[C@@H]2CC[C@@H](C)[C@@](O)(O2)C(=O)C(=O)N2CCCC[C@H]2C(=O)O[C@H]([C@H](C)C[C@@H]2CC[C@@H](OP(C)(C)=O)[C@H](OC)C2)CC(=O)[C@H](C)/C=C(\C)[C@@H](O)[C@@H](OC)C(=O)[C@H](C)C[C@H](C)/C=C/C=C/C=C/1C [Ridaforolimus] | 1.01 ± 0.067 | 0.903 ± 0.025 | 0.753 ± 0.016 | 0.67 ± 0.018 | 0.632 ± 0.029 | 0.594 ± 0.031 | 0.559 ± 0.022 | 0.563 ± 0.031 | 0.554 ± 0.021 | 0.5602 ± 0.0032 | 0.5145 ± 0.0018 |
| CCc1cc2c(cc1N1CCC(N3CCOCC3)CC1)C(C)(C)c1[nH]c3cc(C#N)ccc3c1C2=O [Alectinib] | 1.06 ± 0.056 | 1.1 ± 0.043 | 1.08 ± 0.041 | 1.1 ± 0.027 | 1.12 ± 0.018 | 1.08 ± 0.06 | 1.119 ± 0.0081 | 1.12 ± 0.0046 | 1.1 ± 0.019 | 1.11 ± 0.021 | 1.08 ± 0.016 |
| C[C@@H](c1ccc2nccn2c1)n1nnc2ncc(-c3cnn(C)c3)nc21 [Volitinib] | 1.03 ± 0.013 | 0.979 ± 0.016 | 0.975 ± 0.027 | 0.958 ± 0.027 | 0.763 ± 0.019 | 0.636 ± 0.017 | 0.548 ± 0.016 | 0.554 ± 0.024 | 0.546 ± 0.019 | 0.537 ± 0.016 | 0.538 ± 0.0092 |
| CC1(C)CNc2cc(NC(=O)c3cccnc3NCc3ccncc3)ccc21 [Motesanib] | 1.04 ± 0.042 | 1.02 ± 0.013 | 1.024 ± 0.0066 | 1.02 ± 0.016 | 1.06 ± 0.025 | 1.03 ± 0.033 | 1.02 ± 0.04 | 1.04 ± 0.027 | 0.99 ± 0.037 | 0.986 ± 0.017 | 0.925 ± 0.02 |
| CN1CCN(c2ccc3nc(-c4c(N)c5c(F)cccc5[nH]c4=O)[nH]c3c2)CC1 [Dovitinib] | 1.08 ± 0.053 | 1.09 ± 0.049 | 1.1 ± 0.037 | 1.14 ± 0.043 | 1.09 ± 0.063 | 1.12 ± 0.022 | 1.11 ± 0.015 | 1.07 ± 0.035 | 0.907 ± 0.017 | 0.654 ± 0.021 | 0.407 ± 0.0099 |
| CNC(=O)c1cc(Oc2ccc(NC(=O)Nc3ccc(Cl)c(C(F)(F)F)c3)c(F)c2)ccn1 [Regorafenib] | 1.12 ± 0.046 | 1.11 ± 0.018 | 1.12 ± 0.082 | 1.11 ± 0.03 | 1.17 ± 0.053 | 1.08 ± 0.073 | 1.11 ± 0.079 | 1.05 ± 0.036 | 0.938 ± 0.066 | 0.719 ± 0.035 | 0.0852 ± 0.017 |
| Cc1nc(NC(=O)N2CCC[C@H]2C(N)=O)sc1-c1ccnc(C(C)(C)C(F)(F)F)c1 [Alpelisib] | 1.02 ± 0.024 | 1.04 ± 0.048 | 1 ± 0.063 | 1.01 ± 0.022 | 0.967 ± 0.046 | 0.951 ± 0.048 | 0.889 ± 0.043 | 0.8312 ± 0.0082 | 0.749 ± 0.055 | 0.666 ± 0.025 | 0.54 ± 0.044 |
| CCN1CCN(Cc2ccc(Nc3ncc(F)c(-c4cc(F)c5nc(C)n(C(C)C)c5c4)n3)nc2)CC1 [Abemaciclib] | 1.03 ± 0.012 | 1.05 ± 0.019 | 1.05 ± 0.057 | 1.02 ± 0.033 | 1.04 ± 0.024 | 1.01 ± 0.021 | 0.945 ± 0.037 | 0.9498 ± 0.0093 | 0.926 ± 0.043 | 0.88 ± 0.042 | 0.873 ± 0.02 |
| CC[C@H](Nc1ncnc2[nH]cnc12)c1nc2cccc(F)c2c(=O)n1-c1ccccc1 [Idelalisib] | 1.02 ± 0.019 | 1.02 ± 0.046 | 1.02 ± 0.084 | 1.01 ± 0.028 | 0.991 ± 0.034 | 1.02 ± 0.041 | 0.972 ± 0.049 | 0.929 ± 0.035 | 0.838 ± 0.049 | 0.71 ± 0.03 | 0.618 ± 0.025 |
| C=CC(=O)N1CCC[C@@H](n2nc(-c3ccc(Oc4ccccc4)cc3)c3c(N)ncnc32)C1 [Ibrutinib] | 1.04 ± 0.048 | 1.01 ± 0.058 | 1.02 ± 0.045 | 1.03 ± 0.04 | 1.04 ± 0.015 | 1.03 ± 0.016 | 1.05 ± 0.055 | 1.05 ± 0.028 | 1.05 ± 0.012 | 0.9551 ± 0.0066 | 0.693 ± 0.032 |
